From the kinase profiling compilation of Christmann-Franck et al. (2016)

Tests used:
Assay in all cases: radiometric filter-binding kinase assay, Kinase HotSpot
Settings in all cases: compound 0.5 µM; ATP 10 µM
MAPK9 (human) = MAPK9 (human) (UniProt P45984)
DDR2 (human) = DDR2 (human) (UniProt Q16832)
FGR (human) = FGR (human) (UniProt P09769)
STK24 (human) = STK24 (human) (UniProt Q9Y6E0)
CLK2 (human) = CLK2 (human) (UniProt P49760)
STK16 (human) = STK16 (human) (UniProt O75716)
SLK (human) = SLK (human) (UniProt Q9H2G2)
TAOK3 (human) = TAOK3 (human) (UniProt Q9H2K8)
AURKC (human) = AURKC (human) (UniProt Q9UQB9)
Chain of AURKC (human) (Q9UQB9 whole entry, looked up): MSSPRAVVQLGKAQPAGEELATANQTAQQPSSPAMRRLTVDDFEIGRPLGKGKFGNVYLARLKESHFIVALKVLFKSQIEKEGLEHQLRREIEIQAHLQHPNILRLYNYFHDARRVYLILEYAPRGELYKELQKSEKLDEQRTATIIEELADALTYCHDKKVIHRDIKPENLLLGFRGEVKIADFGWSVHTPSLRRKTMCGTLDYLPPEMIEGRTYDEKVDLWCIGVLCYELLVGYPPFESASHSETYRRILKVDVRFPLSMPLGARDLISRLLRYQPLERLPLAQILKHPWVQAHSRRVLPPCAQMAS

ALK (human) = ALK (human) (UniProt Q9UM73)
CAMKK1 (human) = CAMKK1 (human) (UniProt Q8N5S9)
Chain of CAMKK1 (human) (Q8N5S9 whole entry, looked up): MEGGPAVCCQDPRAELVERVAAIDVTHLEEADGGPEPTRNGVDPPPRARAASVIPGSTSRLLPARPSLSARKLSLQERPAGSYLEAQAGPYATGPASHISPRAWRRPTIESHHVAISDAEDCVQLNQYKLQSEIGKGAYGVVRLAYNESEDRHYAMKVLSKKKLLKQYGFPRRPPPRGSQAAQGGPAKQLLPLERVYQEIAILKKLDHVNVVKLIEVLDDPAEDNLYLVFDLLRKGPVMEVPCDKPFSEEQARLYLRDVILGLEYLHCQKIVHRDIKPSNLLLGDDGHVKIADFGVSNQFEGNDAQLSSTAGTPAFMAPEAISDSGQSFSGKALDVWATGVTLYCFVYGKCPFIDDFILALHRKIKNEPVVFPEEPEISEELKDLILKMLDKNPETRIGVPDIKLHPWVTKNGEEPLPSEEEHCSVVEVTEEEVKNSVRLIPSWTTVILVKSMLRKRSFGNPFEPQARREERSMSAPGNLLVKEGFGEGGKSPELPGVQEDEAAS

CDK7 CCNH MNAT1 (human) = CDK7 CCNH MNAT1 (human) (UniProt P50613+P51948+P51946)
ABL2 (human) = ABL2 (human) (UniProt P42684)
PRKD1 (human) = PRKD1 (human) (UniProt Q15139)
Chain of PRKD1 (human) (Q15139 whole entry, looked up): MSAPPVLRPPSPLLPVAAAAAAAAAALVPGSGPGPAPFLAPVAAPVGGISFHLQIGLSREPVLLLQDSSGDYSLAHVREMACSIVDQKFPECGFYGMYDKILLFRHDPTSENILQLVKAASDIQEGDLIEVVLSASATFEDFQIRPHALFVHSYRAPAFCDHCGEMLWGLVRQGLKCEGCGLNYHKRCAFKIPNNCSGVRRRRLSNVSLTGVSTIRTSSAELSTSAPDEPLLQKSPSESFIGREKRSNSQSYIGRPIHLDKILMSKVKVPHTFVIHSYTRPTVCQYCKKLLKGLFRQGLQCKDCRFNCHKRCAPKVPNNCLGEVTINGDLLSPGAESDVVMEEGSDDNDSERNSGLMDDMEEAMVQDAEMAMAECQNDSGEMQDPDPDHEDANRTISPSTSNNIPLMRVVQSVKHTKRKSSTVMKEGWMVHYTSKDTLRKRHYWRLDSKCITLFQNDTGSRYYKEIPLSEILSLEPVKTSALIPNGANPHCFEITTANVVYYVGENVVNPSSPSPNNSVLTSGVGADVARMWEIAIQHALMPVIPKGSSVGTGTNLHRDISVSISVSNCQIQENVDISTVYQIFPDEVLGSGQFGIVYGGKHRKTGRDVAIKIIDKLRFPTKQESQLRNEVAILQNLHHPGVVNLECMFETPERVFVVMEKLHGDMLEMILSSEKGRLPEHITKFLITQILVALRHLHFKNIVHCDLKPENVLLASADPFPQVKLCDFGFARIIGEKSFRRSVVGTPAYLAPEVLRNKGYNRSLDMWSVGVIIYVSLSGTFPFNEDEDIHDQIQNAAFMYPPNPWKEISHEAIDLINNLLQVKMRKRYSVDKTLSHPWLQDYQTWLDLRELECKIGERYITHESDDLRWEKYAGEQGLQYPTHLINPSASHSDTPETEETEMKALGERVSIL

AURKB (human) = AURKB (human) (UniProt Q96GD4)
Chain of AURKB (human) (Q96GD4 whole entry, looked up): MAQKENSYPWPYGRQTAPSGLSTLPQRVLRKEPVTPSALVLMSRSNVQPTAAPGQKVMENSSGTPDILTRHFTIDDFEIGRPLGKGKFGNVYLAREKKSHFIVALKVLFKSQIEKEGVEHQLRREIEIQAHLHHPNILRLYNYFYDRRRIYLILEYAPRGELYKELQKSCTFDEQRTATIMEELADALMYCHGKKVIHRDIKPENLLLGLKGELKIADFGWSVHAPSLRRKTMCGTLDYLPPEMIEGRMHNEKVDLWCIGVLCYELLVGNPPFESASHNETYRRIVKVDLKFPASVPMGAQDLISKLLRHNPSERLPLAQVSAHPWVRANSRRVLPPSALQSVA

PLK2 (human) = PLK2 (human) (UniProt Q9NYY3)
Chain of PLK2 (human) (Q9NYY3 whole entry, looked up): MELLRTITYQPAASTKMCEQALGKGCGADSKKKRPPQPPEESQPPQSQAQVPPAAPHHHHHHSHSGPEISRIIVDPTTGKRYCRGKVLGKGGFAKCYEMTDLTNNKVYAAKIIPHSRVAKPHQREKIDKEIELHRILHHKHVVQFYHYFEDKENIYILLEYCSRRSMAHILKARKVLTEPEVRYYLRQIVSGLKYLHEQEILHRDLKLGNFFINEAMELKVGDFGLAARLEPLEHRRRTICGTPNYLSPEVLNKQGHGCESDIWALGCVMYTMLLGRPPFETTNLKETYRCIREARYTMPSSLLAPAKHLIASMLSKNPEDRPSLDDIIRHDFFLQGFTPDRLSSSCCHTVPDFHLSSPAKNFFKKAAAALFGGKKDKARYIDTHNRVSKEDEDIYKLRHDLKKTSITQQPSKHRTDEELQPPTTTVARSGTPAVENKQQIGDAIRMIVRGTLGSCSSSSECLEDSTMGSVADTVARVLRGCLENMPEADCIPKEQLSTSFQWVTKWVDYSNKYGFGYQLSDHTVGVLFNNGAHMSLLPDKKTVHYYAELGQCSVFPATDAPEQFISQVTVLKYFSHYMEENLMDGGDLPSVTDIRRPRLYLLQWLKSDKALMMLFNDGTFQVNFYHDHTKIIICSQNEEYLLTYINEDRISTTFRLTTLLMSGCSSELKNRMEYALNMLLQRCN

TNK2 (human) = TNK2 (human) (UniProt Q07912)
SRPK2 (human) = SRPK2 (human) (UniProt P78362)
MYLK (human) = MYLK (human) (UniProt Q15746)
DCLK2 (human) = DCLK2 (human) (UniProt Q8N568)
DSTYK (human) = DSTYK (human) (UniProt Q6XUX3)
SIK2 (human) = SIK2 (human) (UniProt Q9H0K1)
PASK (human) = PASK (human) (UniProt Q96RG2)
PRKACA (human) = PRKACA (human) (UniProt P17612)
MST1R (human) = MST1R (human) (UniProt Q04912)
OXSR1 (human) = OXSR1 (human) (UniProt O95747)
CAMK2A (human) = CAMK2A (human) (UniProt Q9UQM7)
DYRK1A (human) = DYRK1A (human) (UniProt Q13627)
MAP3K14 (human) = MAP3K14 (human) (UniProt Q99558)
CSNK2A2 (human) = CSNK2A2 (human) (UniProt P19784)
EPHA1 (human) = EPHA1 (human) (UniProt P21709)
PRKCE (human) = PRKCE (human) (UniProt Q02156)
FLT3 (human) = FLT3 (human) (UniProt P36888)
FGFR2 (human) = FGFR2 (human) (UniProt P21802)
KIT (human) = KIT (human) (UniProt P10721)
Chain of KIT (human) (P10721 whole entry, looked up): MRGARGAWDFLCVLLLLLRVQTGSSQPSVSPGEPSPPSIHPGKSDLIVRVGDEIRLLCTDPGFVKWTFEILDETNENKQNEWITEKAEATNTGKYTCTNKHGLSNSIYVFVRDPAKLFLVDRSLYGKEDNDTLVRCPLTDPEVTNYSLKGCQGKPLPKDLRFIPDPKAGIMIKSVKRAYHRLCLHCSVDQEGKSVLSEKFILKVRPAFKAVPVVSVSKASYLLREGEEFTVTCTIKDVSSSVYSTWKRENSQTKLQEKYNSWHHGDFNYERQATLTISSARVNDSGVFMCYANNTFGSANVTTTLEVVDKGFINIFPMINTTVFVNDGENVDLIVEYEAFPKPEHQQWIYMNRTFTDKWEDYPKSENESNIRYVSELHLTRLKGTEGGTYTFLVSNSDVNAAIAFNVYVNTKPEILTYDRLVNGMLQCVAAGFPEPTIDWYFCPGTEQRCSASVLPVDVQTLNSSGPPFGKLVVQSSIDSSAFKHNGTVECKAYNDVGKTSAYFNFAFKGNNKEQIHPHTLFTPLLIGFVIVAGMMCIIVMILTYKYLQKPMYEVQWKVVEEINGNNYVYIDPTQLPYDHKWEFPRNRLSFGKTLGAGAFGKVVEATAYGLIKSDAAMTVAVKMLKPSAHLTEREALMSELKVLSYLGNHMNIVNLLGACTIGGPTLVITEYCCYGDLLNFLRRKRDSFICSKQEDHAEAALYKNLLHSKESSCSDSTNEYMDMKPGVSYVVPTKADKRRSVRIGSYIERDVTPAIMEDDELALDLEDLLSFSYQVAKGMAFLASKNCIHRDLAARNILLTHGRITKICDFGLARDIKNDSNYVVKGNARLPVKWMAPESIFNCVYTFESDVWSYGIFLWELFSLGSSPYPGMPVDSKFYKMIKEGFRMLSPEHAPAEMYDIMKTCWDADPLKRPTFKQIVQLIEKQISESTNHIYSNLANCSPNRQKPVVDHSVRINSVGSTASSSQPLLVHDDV

LTK (human) = LTK (human) (UniProt P29376)
MAP2K2 (human) = MAP2K2 (human) (UniProt P36507)
Chain of MAP2K2 (human) (P36507 whole entry, looked up): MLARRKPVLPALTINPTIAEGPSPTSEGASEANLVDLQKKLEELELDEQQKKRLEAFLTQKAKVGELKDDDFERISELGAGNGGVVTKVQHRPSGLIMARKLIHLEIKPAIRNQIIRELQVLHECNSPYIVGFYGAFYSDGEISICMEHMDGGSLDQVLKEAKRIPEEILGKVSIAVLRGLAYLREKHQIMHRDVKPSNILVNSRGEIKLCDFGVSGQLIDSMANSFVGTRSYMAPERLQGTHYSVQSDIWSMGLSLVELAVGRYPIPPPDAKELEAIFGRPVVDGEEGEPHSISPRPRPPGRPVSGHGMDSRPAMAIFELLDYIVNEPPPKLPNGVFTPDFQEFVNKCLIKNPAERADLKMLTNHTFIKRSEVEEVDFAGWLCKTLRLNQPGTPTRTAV

JAK2 JH1 JH2 (human) = JAK2 JH1 JH2 (human) (UniProt O60674)
TAOK2 (human) = TAOK2 (human) (UniProt Q9UL54)
TYRO3 (human) = TYRO3 (human) (UniProt Q06418)
CSNK1G3 (human) = CSNK1G3 (human) (UniProt Q9Y6M4)
Chain of CSNK1G3 (human) (Q9Y6M4 whole entry, looked up): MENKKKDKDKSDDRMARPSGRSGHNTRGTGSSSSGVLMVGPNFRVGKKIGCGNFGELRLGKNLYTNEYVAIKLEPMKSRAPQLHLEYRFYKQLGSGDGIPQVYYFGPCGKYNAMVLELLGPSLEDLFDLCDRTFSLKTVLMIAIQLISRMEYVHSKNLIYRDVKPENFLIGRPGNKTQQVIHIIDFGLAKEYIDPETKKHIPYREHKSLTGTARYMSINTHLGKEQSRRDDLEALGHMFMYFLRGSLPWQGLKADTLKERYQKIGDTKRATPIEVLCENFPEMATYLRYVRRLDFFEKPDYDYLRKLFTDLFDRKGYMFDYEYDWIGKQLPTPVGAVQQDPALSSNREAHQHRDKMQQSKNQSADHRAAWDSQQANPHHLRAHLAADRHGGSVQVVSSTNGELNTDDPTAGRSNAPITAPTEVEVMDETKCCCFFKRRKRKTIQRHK

HIPK2 (human) = HIPK2 (human) (UniProt Q9H2X6)

Chain of STK24 (human) (Q9Y6E0 whole entry, looked up): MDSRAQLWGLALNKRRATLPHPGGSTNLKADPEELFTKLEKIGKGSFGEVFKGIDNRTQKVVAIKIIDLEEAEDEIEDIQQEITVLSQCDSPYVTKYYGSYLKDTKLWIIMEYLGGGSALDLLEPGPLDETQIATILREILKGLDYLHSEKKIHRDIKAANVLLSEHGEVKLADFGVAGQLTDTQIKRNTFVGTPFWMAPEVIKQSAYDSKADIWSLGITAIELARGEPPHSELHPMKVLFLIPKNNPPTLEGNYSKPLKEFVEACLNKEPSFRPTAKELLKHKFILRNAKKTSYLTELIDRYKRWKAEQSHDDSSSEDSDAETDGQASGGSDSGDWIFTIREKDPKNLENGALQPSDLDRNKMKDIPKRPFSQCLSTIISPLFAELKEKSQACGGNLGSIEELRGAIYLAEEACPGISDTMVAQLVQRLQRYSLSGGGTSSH

`CN(C)CCCn1cc(C2=C(c3c[nH]c4ccccc34)C(=O)NC2=O)c2ccccc21` gave a residual activity (MAPK9 (human)) of 98.7%, a residual activity (DDR2 (human)) of 111% and a residual activity (FGR (human)) of 90.9%. The residual activity (STK24 (human)) was 52.9%, the residual activity (CLK2 (human)) was 28% and the residual activity (STK16 (human)) was 80.8%. It also gave a residual activity (SLK (human)) of 45.8%, a residual activity (TAOK3 (human)) of 67.6% and a residual activity (AURKC (human)) of 84.7%. For the same molecule, the residual activity (ALK (human)) was 87%, the residual activity (CAMKK1 (human)) was 90.8% and the residual activity (CDK7 CCNH MNAT1 (human)) was 92.1%. It also gave a residual activity (ABL2 (human)) of 96.3%, a residual activity (PRKD1 (human)) of 71.6% and a residual activity (AURKB (human)) of 86.6%. The residual activity (PLK2 (human)) was 97.3%, the residual activity (TNK2 (human)) was 94.7% and the residual activity (SRPK2 (human)) was 94.4%. For the same molecule, the residual activity (MYLK (human)) was 23.2%, the residual activity (DCLK2 (human)) was 95% and the residual activity (DSTYK (human)) was 95%. It also gave a residual activity (SIK2 (human)) of 94.7%, a residual activity (PASK (human)) of 67% and a residual activity (PRKACA (human)) of 72%. For the same molecule, the residual activity (MST1R (human)) was 109%, the residual activity (OXSR1 (human)) was 97.4% and the residual activity (CAMK2A (human)) was 35.2%. The residual activity (DYRK1A (human)) was 54.7%, the residual activity (MAP3K14 (human)) was 110% and the residual activity (CSNK2A2 (human)) was 92%. The residual activity (EPHA1 (human)) was 89.9%, the residual activity (PRKCE (human)) was 0.493% and the residual activity (FLT3 (human)) was 5.6%. It also gave a residual activity (FGFR2 (human)) of 95.4%, a residual activity (KIT (human)) of 69.5% and a residual activity (LTK (human)) of 99.5%. For the same molecule, the residual activity (MAP2K2 (human)) was 98.9%, the residual activity (JAK2 JH1 JH2 (human)) was 93.9% and the residual activity (TAOK2 (human)) was 75.7%. For the same molecule, the residual activity (TYRO3 (human)) was 97.2%, the residual activity (CSNK1G3 (human)) was 96.9% and the residual activity (HIPK2 (human)) was 77.5%.

For `Cc1cncc2cccc(S(=O)(=O)N3CCCN(C(=O)CN)C[C@H]3C)c12`, the residual activity (MAPK9 (human)) was 106%, the residual activity (DDR2 (human)) was 103% and the residual activity (FGR (human)) was 94.1%. The residual activity (STK24 (human)) was 92.4%, the residual activity (CLK2 (human)) was 102% and the residual activity (STK16 (human)) was 97.9%. It also gave a residual activity (SLK (human)) of 90.4%, a residual activity (TAOK3 (human)) of 96.2% and a residual activity (AURKC (human)) of 71.9%. It also gave a residual activity (ALK (human)) of 113%, a residual activity (CAMKK1 (human)) of 115% and a residual activity (CDK7 CCNH MNAT1 (human)) of 98%. For the same molecule, the residual activity (ABL2 (human)) was 98.9%, the residual activity (PRKD1 (human)) was 96.7% and the residual activity (AURKB (human)) was 34.9%. The residual activity (PLK2 (human)) was 101%, the residual activity (TNK2 (human)) was 84.5% and the residual activity (SRPK2 (human)) was 97.1%. It also gave a residual activity (MYLK (human)) of 103%, a residual activity (DCLK2 (human)) of 89% and a residual activity (DSTYK (human)) of 105%. It also gave a residual activity (SIK2 (human)) of 89.4%, a residual activity (PASK (human)) of 105% and a residual activity (PRKACA (human)) of 99.5%. It also gave a residual activity (MST1R (human)) of 99.3%, a residual activity (OXSR1 (human)) of 99.4% and a residual activity (CAMK2A (human)) of 93.2%. The residual activity (DYRK1A (human)) was 93.1%, the residual activity (MAP3K14 (human)) was 109% and the residual activity (CSNK2A2 (human)) was 99.3%. The residual activity (EPHA1 (human)) was 89.2%, the residual activity (PRKCE (human)) was 52.4% and the residual activity (FLT3 (human)) was 90.1%. For the same molecule, the residual activity (FGFR2 (human)) was 98.4%, the residual activity (KIT (human)) was 92.9% and the residual activity (LTK (human)) was 93%. The residual activity (MAP2K2 (human)) was 106%, the residual activity (JAK2 JH1 JH2 (human)) was 93.9% and the residual activity (TAOK2 (human)) was 94%. The residual activity (TYRO3 (human)) was 98.9%, the residual activity (CSNK1G3 (human)) was 106% and the residual activity (HIPK2 (human)) was 90.2%.

In the case of `c1ccc2c(-c3ccncc3)c[nH]c2c1`, the residual activity (MAPK9 (human)) is reported as 103%, the residual activity (DDR2 (human)) is reported as 92.6% and the residual activity (FGR (human)) is reported as 94.5%. The residual activity (STK24 (human)) was 93.5%, the residual activity (CLK2 (human)) was 101% and the residual activity (STK16 (human)) was 110%. For the same molecule, the residual activity (SLK (human)) was 103%, the residual activity (TAOK3 (human)) was 103% and the residual activity (AURKC (human)) was 93.1%. The residual activity (ALK (human)) was 106%, the residual activity (CAMKK1 (human)) was 122% and the residual activity (CDK7 CCNH MNAT1 (human)) was 97%. For the same molecule, the residual activity (ABL2 (human)) was 91.9%, the residual activity (PRKD1 (human)) was 95.5% and the residual activity (AURKB (human)) was 95.9%. The residual activity (PLK2 (human)) was 99.9%, the residual activity (TNK2 (human)) was 96.1% and the residual activity (SRPK2 (human)) was 103%. The residual activity (MYLK (human)) was 96.8%, the residual activity (DCLK2 (human)) was 98.1% and the residual activity (DSTYK (human)) was 95.9%. The residual activity (SIK2 (human)) was 90.5%, the residual activity (PASK (human)) was 101% and the residual activity (PRKACA (human)) was 91.6%. For the same molecule, the residual activity (MST1R (human)) was 98.9%, the residual activity (OXSR1 (human)) was 97.2% and the residual activity (CAMK2A (human)) was 104%. The residual activity (DYRK1A (human)) was 77.6%, the residual activity (MAP3K14 (human)) was 112% and the residual activity (CSNK2A2 (human)) was 94.9%. It also gave a residual activity (EPHA1 (human)) of 105%, a residual activity (PRKCE (human)) of 81.5% and a residual activity (FLT3 (human)) of 91.5%. It also gave a residual activity (FGFR2 (human)) of 105%, a residual activity (KIT (human)) of 93.2% and a residual activity (LTK (human)) of 103%. The residual activity (MAP2K2 (human)) was 103%, the residual activity (JAK2 JH1 JH2 (human)) was 93.8% and the residual activity (TAOK2 (human)) was 92.1%. It also gave a residual activity (TYRO3 (human)) of 98.1%, a residual activity (CSNK1G3 (human)) of 108% and a residual activity (HIPK2 (human)) of 94.1%.

For `Ic1cccc(CSc2nnc(-c3ccncc3)o2)c1`, the residual activity (MAPK9 (human)) was 108%, the residual activity (DDR2 (human)) was 103% and the residual activity (FGR (human)) was 90.9%. For the same molecule, the residual activity (STK24 (human)) was 108%, the residual activity (CLK2 (human)) was 104% and the residual activity (STK16 (human)) was 110%. It also gave a residual activity (SLK (human)) of 98.6%, a residual activity (TAOK3 (human)) of 103% and a residual activity (AURKC (human)) of 91.2%. For the same molecule, the residual activity (ALK (human)) was 101%, the residual activity (CAMKK1 (human)) was 124% and the residual activity (CDK7 CCNH MNAT1 (human)) was 96.7%. For the same molecule, the residual activity (ABL2 (human)) was 110%, the residual activity (PRKD1 (human)) was 97.6% and the residual activity (AURKB (human)) was 99.1%. The residual activity (PLK2 (human)) was 101%, the residual activity (TNK2 (human)) was 101% and the residual activity (SRPK2 (human)) was 97.4%. The residual activity (MYLK (human)) was 99.1%, the residual activity (DCLK2 (human)) was 100% and the residual activity (DSTYK (human)) was 94.8%. The residual activity (SIK2 (human)) was 100%, the residual activity (PASK (human)) was 100% and the residual activity (PRKACA (human)) was 94.6%. The residual activity (MST1R (human)) was 104%, the residual activity (OXSR1 (human)) was 105% and the residual activity (CAMK2A (human)) was 92.3%. The residual activity (DYRK1A (human)) was 96.4%, the residual activity (MAP3K14 (human)) was 88.3% and the residual activity (CSNK2A2 (human)) was 81%. For the same molecule, the residual activity (EPHA1 (human)) was 97%, the residual activity (PRKCE (human)) was 86.5% and the residual activity (FLT3 (human)) was 102%. For the same molecule, the residual activity (FGFR2 (human)) was 101%, the residual activity (KIT (human)) was 99.8% and the residual activity (LTK (human)) was 103%. For the same molecule, the residual activity (MAP2K2 (human)) was 102%, the residual activity (JAK2 JH1 JH2 (human)) was 107% and the residual activity (TAOK2 (human)) was 105%. For the same molecule, the residual activity (TYRO3 (human)) was 103%, the residual activity (CSNK1G3 (human)) was 75.9% and the residual activity (HIPK2 (human)) was 102%.
